Measurements published in ChEMBL document CHEMBL1201862, “PubChem BioAssay data set” (2004).
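Interpolation was linear, between the two tested concentrations surrounding the appropriate level; five concentrations were tested over 48 hours in 96-well plates. At the GI50, growth is halved.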 Activity calls are given as the source filed them. Rule as the data show it: active = GI50 up to about 1.1 µM and inactive = higher.

Columns and labels:
Test in all cases: inhibition of tumour cell growth, NCI panel, 48 h
MDA-N = test system: MDA-N
OVCAR-5 = test system: OVCAR-5
M14 = test system: M14
SW-620 = test system: SW-620
MCF7 = test system: MCF7
HT-29 = test system: HT-29
SF-539 = test system: SF-539
ACHN = test system: ACHN
RXF 393 = test system: RXF 393
TK-10 = test system: TK-10
RPMI-8226 = test system: RPMI-8226
SF-268 = test system: SF-268
NCI-H23 = test system: NCI-H23
DU-145 = test system: DU-145
PC-3 = test system: PC-3
U-251 = test system: U-251
Hs-578T = test system: Hs-578T
CCRF-CEM = test system: CCRF-CEM
NCI-H226 = test system: NCI-H226
HCT-116 = test system: HCT-116

Measured: GI50

Nc1ccn(C2OC(CO)C(O)C2O)c(=O)n1 (stereo not given)
inactive: MDA-N 7.45 µM | OVCAR-5 21.2 µM | SW-620 31.4 µM | HT-29 112 µM | SF-539 30.8 µM | RXF 393 191 µM | TK-10 467 µM | RPMI-8226 337 µM | SF-268 3.15 µM | DU-145 1.74 µM | PC-3 36.5 µM | U-251 8.89 µM | Hs-578T > 481 µM | NCI-H226 239 µM
active: M14 0.186 µM | MCF7 0.156 µM | ACHN 0.277 µM | NCI-H23 0.248 µM | CCRF-CEM 0.0527 µM | HCT-116 0.207 µM
